Results reported in US12612411B1, “Imidazopyrazine derivatives, process for preparation thereof, and their uses as luciferins” (INSTITUT PASTEUR, priority 2017, dated 2026).

How the values were obtained:
[1] = cited from earlier work; for storage stability: commercially available luciferins; for permitted storage time at 4° C.: recommended storage conditions
nanoKAZ luciferase = molecular target: T1, nanoKAZ luciferase (Oplophorus gracilirostris, UniProt Q9GV45, A31E/A60N/A81I/F95D/I117V/K70R/L54V/L99Q/M102K/N193R/P142E/Q151K/Q38R/Q45L/V71I/Y165I); assay: In vitro bioluminescence screening of imidazo[1,2-a]pyrazin-3(7H)-ones with nanoKAZ expressed in vitro (96-well luminometer, 2 h kinetic); type: biochemical; conditions: furimazine = 1
T1 construct: luciferase catalytic domain (nanoKAZ, 19 kDa) from the Oplophorus-derived luciferase; host or cells: cell-free: 1-Step Human Coupled IVT Kit, pT7CFE1-based vector
Experimental: (§1) General protocol for the generation of solutions of imidazo[1,2-a]pyrazin-3(7H)-one Q by acidic hydrolysis of imidazo[1,2-a]pyrazin-3-yl acetate derivatives P. The considered acetate P (1 mg) was dissolved in DMSO (0.2 mL) and then diluted by adding a solution of acidic ethanol (0.3 ml) made from the addition of 37% hydrochloric acid (100 μl) on 100% ethanol (12 mL). This 0.5 mL solution was incubated at 50° C. for 2 hours to give a stock solution which was then stored at −80° C. […] Nota: these conditions are only adapted to the hydrolysis of the protecting group (as defined above) of the oxygen on position 2 of the imidazo[1,2-a]pyrazine ring system and not to the hydrolysis of any additional acetyl groups eventually present elsewhere on the substrate of this reaction.
The representative bioluminescence curves shown in the FIG. 2 provided an assessment for furimazine (Q-1), 8-benzyl-2-(furan-2-ylmethyl)-6-(4-hydroxyphenyl)imidazo[1,2-a]pyrazin-3 (7/1)-one (Q-80), 8-(2-fluorobenzyl)-2-(furan-2-ylmethyl)-6-phenylimidazo[1,2-a]pyrazin-3(7H)-one (Q-84), and 8-(2-fluorobenzyl)-2-((5-methylfuran-2-yl)methyl)-6-phenylimidazo[1,2-a]pyrazin-3(7H)-one (Q-85) was obtained using a luciferase expressed in vitro as described in the following. The nanoKAZ DNA template was cloned into Thermo Scientific pT7CFE1-based vector and nanoKAZ was expressed using ThermoFisher Scientific 1-Step Human Coupled IVT Kit—DNA (ref. 88881) according to the manufacturer instructions. The resulting reaction mix was diluted 400 times in buffer (DPBS (Gibco)+0.1% (v/v) Tween 20) and conserved at −80° C. The screening of the imidazo[1,2-a]pyrazin-3(7H)-ones was performed in 96 well plates using 50 μL/well of a 1/20 dilution in DPBS (Gibco)+0.1% (v/v) Tween 20 of the nanoKAZ solution.
To illustrate the bioluminescence properties improvement achieved for many of the imidazo[1,2-a]pyrazin-3(7H)-ones described here, four values are provided in Table 1: maximum intensity (V1), signal half-life (V2), area under the curve for ten minutes (V3), and area under the curve for two hours (V4), normalized using furimazine (Q-1) as a reference.
The bioluminescence properties of the tested compounds are considered to be improved when at least one of the values V1-V4 is above 1, and when none of the V1-V4 values is 0.05 or below.
By following the hydrolysis protocol described above, the following imidazo[1,2-a]pyrazin-3(7H)-ones luciferins Q were made in situ from the corresponding O-protected imidazo[1,2-a]pyrazines P and evaluated for their bioluminescence properties (maximum intensity (V1), signal half-life (V2), area under the curve for […], normalized using furimazine (Q-1) as a reference): […]

[2] = Acidic hydrolysis of imidazo[1,2-a]pyrazin-3-yl acetate into the luciferin, LC/MS monitoring; type: physicochemical; conditions: DMSO / acidic ethanol (HCl), 50° C.
Experimental: FIG. 1 illustrates the HPLC profiles over time for the acetyl hydrolysis of P-21 (M=451) into the corresponding luciferin Q-12 (M=409). Obtained on an Agilent apparatus, with a 3.5 μm XDB-C18 column and a water/methanol gradient (containing 5 mM ammonium formate, from 95-5 to 5-95 in 3.5 min, 3.5 min at 5-95, and then back at 95-5 in 0.5 min), UV monitoring set at […].
as §1

nanoKAZ [3] = molecular target: T2, nanoKAZ (Oplophorus gracilirostris, UniProt Q9GV45, A31E/A60N/A81I/F95D/I117V/K70R/L54V/L99Q/M102K/N193R/P142E/Q151K/Q38R/Q45L/V71I/Y165I); assay: Michaelis-Menten parameters of nanoKAZ from Lineweaver-Burk representation; type: biochemical
T2 construct: luciferase catalytic domain (nanoKAZ, 19 kDa) from the Oplophorus-derived luciferase
Description: The two dotted lines (linear regression) are converging to the same intercept with the x-axis (−1/Km) and different intercepts with the y-axis (1/Vmax). The equations of the two linear regressions are indicated and the corresponding correlation factors (R^2) with the experimental data are reported.
Considering the hypothesis of a Michaelis-Menten mechanism for the nanoKAZ, the Km and Vmax were extrapolated from the Lineweaver-Burk representation of the enzyme activity catalyzing either Q-1 or Q-3. […] The data have been fitted with linear regression with satisfying high correlation factors (R). The Km are the same for both substrates (Km=2 μM) whereas the Vmax is 3-times lower for Q-1 (0.6·10^6 RLU/sec) than for Q-3 (2.0·10^6 RLU/sec).

nanoKAZ [4] = molecular target: T2, nanoKAZ; assay: Bioluminescence emission spectra; type: biochemical
Description: Furimazine (Q-1) and derivatives have emission spectra centred on 460 nm but present large peaks bleeding beyond 580 nm. The bioluminescence obtained with the analogue Q-3 provides photons with 10% of them having a wavelength beyond 560 nm up to 600 nm. This wide spectra emission toward red is thus allowing the use of the nanok AZ/furimazine for in vivo imaging. The light emission beyond 580 is thousands times higher than red emitting firefly or beetle luciferases. IL7:nanoKAZ and analogue Q-3 were injected in mice.

[5] = test system: protein chimeras fused to the nanoKAZ in transiently transfected HEK and Jurkat cell lines, and primary human T-cells; assay: In cellulo bioluminescence imaging with a light microscope; type: cell-based; conditions: nanoKAZ/furimazine versus nanoKAZ/Q-3
Description: FIG. 5 compares expression and location of protein chimeras fused to the nanoKAZ in transiently transfected HEK and Jurkat cell lines, and primary human T-cells: the cytokine receptor IL7Rα:nanoKAZ at the membrane (top), the enconsin tubulin binding protein EMTB:nanoKAZ associated with microtubules (middle), the transcription factor STAT5a:nanoKAZ dense throughout the cytoplasm and faint in the nucleus (bottom).
The acquisition of bioluminescence using a light microscope provides a quantitative measurement of light emission cell by cell, the main advantage. This is meaningful especially when the transfection efficiency is low in the case of nanoKAZ expression provided by plasmids. […] The higher is the bioluminescence efficiency, the lower is the exposure time and the lower is the sensitivity required for the detector or camera. NanoKAZ with developed substrates such as Q-3 or Q-12 opens the bioluminescence imaging to standard light microscope. The lower the exposure time, the higher the resolution, which is impeded by the motion of living cells. Any gain in light emission enhances the quality of images. Luciferase reporters or fragments can be fused to proteins targeting the cell surface, cytoplasm, organelles, nucleus or exosomes and can be carried by virus, host-infecting cells or agents, biologic complexes, beads or any particles. […]

[6] = second table, luciferins made in situ from O-protected P

T2 sequence (Q9GV45 other isoform, or with tags, fused parts or gaps with the stated changes): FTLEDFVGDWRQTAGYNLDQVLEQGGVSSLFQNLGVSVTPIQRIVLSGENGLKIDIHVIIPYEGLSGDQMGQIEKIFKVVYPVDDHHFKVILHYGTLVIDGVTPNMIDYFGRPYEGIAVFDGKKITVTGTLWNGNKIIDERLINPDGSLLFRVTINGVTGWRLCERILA
T1 sequence (Q9GV45 other isoform, or with tags, fused parts or gaps with the stated changes): as above

Structure (SMILES)	V1: maximum intensity, normalized using furimazine (Q-1) as a reference (nanoKAZ luciferase; Table 1)	V3: area under the curve for ten minutes, normalized using furimazine (Q-1) as a reference (nanoKAZ luciferase; Table 1)	V4: area under the curve for two hours, normalized using furimazine (Q-1) as a reference (nanoKAZ luciferase; Table 1)	V3: area under the curve for 2 hours, normalized using furimazine (Q-1) as a reference (nanoKAZ luciferase; second table)	V4: area under the curve for ten minutes, normalized using furimazine (Q-1) as a reference (nanoKAZ luciferase; second table)	V1: maximum intensity, normalized using furimazine (Q-1) as a reference (nanoKAZ luciferase; [6])	also measured
O=c1c(Cc2ccc(O)cc2)nc2c(Cc3ccccc3)[nH]c(-c3ccc(O)cc3)cn1-2 [Q-86, 8-benzyl-2-(4-hydroxybenzyl)-6-(4-hydroxyphenyl)imidazo[1,2-a]pyrazin-3(7H)-one, reference compound]	0.09	0.08	0.07	–	–	–	storage stability [1]: very weak storage stability; permitted storage time at 4° C. [1]: up to two weeks only
CCc1ccc(Cc2nc3c(Cc4ccccc4)nc(-c4ccccc4)cn3c2OC(C)=O)o1 [P-21, 8-Benzyl-2-((5-ethylfuran-2-yl)methyl)-6-phenylimidazo[1,2-a]pyrazin-3-yl acetate]	–	–	–	–	–	–	time to complete hydrolysis into the luciferin Q-12 [2]: complete reaction in less than two hours
O=c1c(Cc2ccc(C(F)(F)F)o2)nc2c(Cc3ccccc3)[nH]c(-c3ccccc3)cn1-2 [Q-28, 8-benzyl-6-phenyl-2-((5-(trifluoromethyl)furan-2-yl)methyl)imidazo[1,2-a]pyrazin-3(7H)-one]	1.31	1.11	0.62	–	–	–	–
O=c1c(Cc2ccccc2)nc2c(Cc3cccc(F)c3)[nH]c(-c3ccccc3)cn1-2 [Q-73, 2-benzyl-8-(3-fluorobenzyl)-6-phenylimidazo[1,2-a]pyrazin-3(7H)-one]	1.12	1.19	0.92	–	–	–	–
Cc1cc(Cc2nc3c(Cc4ccccc4F)[nH]c(-c4ccccc4)cn-3c2=O)oc1C [Q-131, 2-((4,5-dimethylfuran-2-yl)methyl)-8-(2-fluorobenzyl)-6-phenylimidazo[1,2-a]pyrazin-3(7H)-one]	–	–	–	1.9	1.02	2.01	–
O=c1c(Cc2ccc(C3CC3)o2)nc2c(Cc3ccccc3)[nH]c(-c3ccccc3)cn1-2 [Q-36, 8-benzyl-2-((5-cyclopropylfuran-2-yl)methyl)-6-phenylimidazo[1,2-a]pyrazin-3(7H)-one]	1.74	1.64	0.83	–	–	–	–
Cc1ccc(Cc2nc3c(Cc4cccc(F)c4F)[nH]c(-c4ccccc4)cn-3c2=O)o1 [Q-108, 8-(2,3-difluorobenzyl)-2-((5-methylfuran-2-yl)methyl)-6-phenylimidazo[1,2-a]pyrazin-3(7H)-one]	–	–	–	3.09	2.1	3.15	–
O=c1c(Cc2ccco2)nc2c(Cc3ccccc3)[nH]c(-c3c(F)cccc3F)cn1-2 [Q-27, 8-benzyl-6-(2,6-difluorophenyl)-2-(furan-2-ylmethyl)imidazo[1,2-a]pyrazin-3(7H)-one]	1.04	1.02	0.97	–	–	–	–
O=c1c(Cc2ccco2)nc2c(Cc3ccccc3)[nH]c(-c3ccccc3)cn1-2 [Q-1, 8-benzyl-2-(furan-2-ylmethyl)-6-phenylimidazo[1,2-a]pyrazin-3(7H)-one, reference compound]	1	1	1	1	1	1	Vmax, times lower than for Q-3 (nanoKAZ [3]; Q-1 versus Q-3): 3 times; Vmax (nanoKAZ [3]; extrapolated from Lineweaver-Burk, constant enzyme concentration): 0.6·10^6 RLU/sec; storage stability [1]: very weak storage stability; permitted storage time at 4° C. [1]: up to two weeks only; emission spectra centre (nanoKAZ [4]): 460 nm; extension of experience times to get the same quality as with nanoKAZ/analogue Q-3 [5]: 3 folds
